Test results taken from paper PMC5908295 (Oncotarget, 2018).
Like-named read-outs stand apart in the source and are kept apart here.

Legend:
MOLM-16 = assay: MTS viability assay, 72 h
Protocol: (§4) On the same day, 50 μL of medium containing tested inhibitor was added to the wells. Each compound was tested at 8 concentrations, in triplicates. As a negative control, the medium containing 0.1% DMSO was used. […] Staurosporine was used at 10 μM as a positive control. One the day of drug addition, basal signal from untreated cells was measured from in triplicate to determine time zero (T0). […] GI50 and LC50 values were extrapolated from a variable (four-parameter) dose-response curve fitted in GraphPad Prism.

PL-21 = assay: MTS viability assay, 72 h; conditions: PL-21, 72 h
Protocol: (§5) 15-25 ×10^3 of MV-4-11, MOLM-13, MOLM-14, MOLM-16, KG-1, Eol-1, SKM-1, PL-21, GDM-1, SKNO-1, RS4;11, Kasumi-3 and Kasumi-6 cells were seeded in 150 μL of culture medium onto individual wells in a 96 well plates, in triplicates. On the same day, 50 μL of medium containing tested inhibitor was added to the wells. Each compound was tested at 8 concentrations, in triplicates. As a negative control, the medium containing 0.1% DMSO was used. […] Staurosporine was used at 10 μM as a positive control. One the day of drug addition, basal signal from untreated cells was measured from in triplicate to determine time zero (T0). […] GI50 and LC50 values were extrapolated from a variable (four-parameter) dose-response curve fitted in GraphPad Prism.

OCI-AML-2 = assay: MTS viability assay, 72 h
Protocol: as §4

MOLM-6 = assay: MTS viability assay, 72 h; conditions: for CC50: read-out: LC50
Protocol: as §5

SKNO-1 = assay: MTS viability assay, 72 h; conditions: SKNO-1, 72 h
Protocol: as §5

MV-4-11 [1] = assay: MTS viability assay, 72 h
Protocol: as §4

MOLM-13 = assay: MTS viability assay, 72 h; conditions: MOLM-13, 72 h; for CC50: read-out: LC50
Protocol: as §5

SIG-M5 = assay: MTS viability assay, 72 h; conditions: SIG-M5, 72 h; for CC50: read-out: LC50
Protocol: as §4

OCI-AML-3 = assay: MTS viability assay, 72 h; conditions: OCI-AML-3, 72 h
Protocol: as §5

MOLM-14 = assay: MTS viability assay, 72 h; conditions: Homo sapiens, MOLM-14, 72 h
Protocol: as §5

KASUMI-6 = assay: MTS viability assay, 72 h
Protocol: as §5

KG-1 = assay: MTS viability assay, 72 h; conditions: KG-1, 72 h; for CC50: read-out: LC50
Protocol: as §5

EOL-1 = assay: MTS viability assay, 72 h
Protocol: as §5

RS4;11 = assay: MTS viability assay, 72 h; conditions: for CC50: read-out: LC50
Protocol: as §5

SKM-1 = assay: MTS viability assay, 72 h; conditions: SKM-1, 72 h; for CC50: read-out: LC50
Protocol: as §4

GDM-1 = assay: MTS viability assay, 72 h; conditions: GDM-1, 72 h
Protocol: as §5

KASUMI-3 = assay: MTS viability assay, 72 h; conditions: for CC50: read-out: LC50
Protocol: as §5

[2] = tested on: MV-4-11 (FLT3-ITD+) cells; assay: Western blot of FLT3/PIM downstream signaling; assay type: cell-based; conditions: MV-4-11, 4 hours
Protocol: (§1) Thereafter, we assessed the activities of FLT3-ITD – induced key pro-survival signaling pathways; STAT5, RAF/MEK/ERK and PI3K/AKT (Figure 3). […] Since the expression of a major anti-apoptotic BCL2 family member, MCL1, is regulated by translation, and PIM kinases regulate protein synthesis through 4EBP1, we also assessed the abundance of MCL1.
(§2) Cells were collected, washed twice with cold PBS, and lysed in RIPA buffer and kept on ice for 10 min. Tumor specimens from xenograft studies were homogenized in RIPA buffer using OMNI TH Tissue Homogenizer and kept on ice for 30 min. After incubation, cell and tumor lysates were centrifuged at 13,000×g at 4°C for 10 min and the supernatants were stored at −80°C until use. Protein concentration was measured using the Bradford method. For SDS-PAGE, 50 μg of protein in the Laemmli sample buffer was loaded onto 10% polyacrylamide gels and electrophoresed. Thereafter, proteins were transferred onto polyvinylidene fluoride (PVDF) membranes (Millipore). After blocking with 5% non-fat dry milk/TBS-T or 2% BSA/TBS-T, membranes were incubated with specific primary antibodies (listed in Supplementary Table 2) at 4 °C overnight. After extensive washing in PBS-T, membranes were incubated for 60 min with appropriate secondary peroxidase-conjugated IgG. The immunoreactive proteins were detected using an enhanced chemiluminescence (ECL) substrate (GE Healthcare) and visualized with Hyperfilm-ECL (GE Healthcare Biosciences).

MOLM-16 (FLT3-WT) cells = assay: Western blot of FLT3/PIM downstream signaling; assay type: cell-based; conditions: MOLM-16, 4 hours
Protocol: as §1, §2

MV-4-11 [3] = assay: Drug interactions (combination index), MTS; assay type: cell-based; conditions: MV-4-11
Protocol: and AC220 in AML cell lines was assessed using an MTS assay. Cells viability was measured after 72 h incubation with three-fold serial dilutions of compounds, starting at 10 µM concentration. Obtained data were presented as percentage of viable cells compared with control (untreated) cells viability. Error bars indicate SD.
11 cells. Combination index (CI) are shown on the Y axis and compound concentrations are shown on X and Z axes. Values […] and below 0.7- a synergy between tested compounds. Values above 1 indicate an antagonistic effect.
(1 picture or pasted object on this page, not shown here)

[4] = tested on: MOLM-14 cells transduced with FLT3 TKD point mutations (D835Y, D835V and F691L); assay: MTS viability of MOLM-14 cells with FLT3 alleles; assay type: cell-based; conditions: 72 h
KG-1 (FLT3-WT) tumor = assay: KG-1 subcutaneous xenograft; assay type: in vivo; conditions: KG-1, SCID mice; doses not given
Text: (§3) All animals were handled in strict accordance with good animal practice as defined by the relevant national and local animal welfare bodies. SCID and SCID/beige C.B-17 mice were provided by Harlan Laboratories or Charles River Laboratories, and were maintained in pathogen free conditions. For the xenograft experiments, age-matched (9-11 weeks old) females were used. 5×10^6 of MV-4-11 or MOLM-16 cells were suspended in a mixture (1:1, v:v) of PBS with Matrigel (BD Biosciences,) and injected subcutaneously (sc), in a total volume of 100 μL, above the groin on the right hind limb. For MOLM-13 and KG-1 cells, a mixture (3:1, v:v) of PBS and Matrigel HC (BD Bioscience,) was used to inject 5 × 10^6 of cell per mouse subcutaneously (sc), in a total volume of 100 μL. When tumors reached 100-130 mm^3, mice were randomized into uniform groups (6-9 mice per group) and subsequently administered the compound. […] At the end of the experiment, mice were anesthetized with isofluran and blood samples for total cell counts and biochemistry were obtained by retro-orbital bleeding. […] 5×10^6 cells suspended in a mixture (3:1, v:v) of PBS and Matrigel were injected as described above. […] Tumor volume was monitored every second day and calculated using the formula: TV = (a^2×b)/2, where “a” is the short axis in millimeters, and “b” is the long axis in millimeters. Body weight was assessed every day.

MOLM-13 xenografts = assay: MOLM-13 subcutaneous xenograft; assay type: in vivo; conditions: MOLM-13, SCID mice; AC220 10 mg/kg QD, other doses not given
Text: as §3

CC(C)(C)c1cc(NC(=O)Nc2ccc(-c3cn4c(n3)sc3cc(OCCN5CCOCC5)ccc34)cc2)no1 [AC220]
GI50 (MOLM-16; MOLM16, 72 h): 688 nM
CC50 (MOLM-16; MOLM16, 72 h, read-out: LC50): 8230 nM
GI50 (PL-21): 412 nM
GI50 (OCI-AML-2; Homo sapiens, OCI-AML2, 72 h): 499 nM
CC50 (OCI-AML-2; Homo sapiens, OCI-AML2, 72 h, read-out: LC50): 1240 nM
GI50 (MOLM-6; 72 h): 681 nM
CC50 (MOLM-6; 72 h): > 10000 nM
GI50 (SKNO-1): 6 nM
GI50 (MV-4-11 [1]; Homo sapiens, MV4-11, 72 h): < 5 nM
CC50 (MV-4-11 [1]; Homo sapiens, MV4-11, 72 h, read-out: LC50): < 5 nM
GI50 (MOLM-13; Homo sapiens): < 5 nM
CC50 (MOLM-13; Homo sapiens): 42 nM
GI50 (SIG-M5; Homo sapiens): 558 nM
CC50 (SIG-M5; Homo sapiens): 3090 nM
GI50 (OCI-AML-3; Homo sapiens): 1180 nM
CC50 (OCI-AML-3; Homo sapiens, read-out: LC50): > 10000 nM
GI50 (MOLM-14): < 5 nM
CC50 (MOLM-14; read-out: LC50): 196 nM
GI50 (KASUMI-6; 72 h): < 5 nM
GI50 (KG-1; Homo sapiens): 210 nM
CC50 (KG-1; Homo sapiens): > 10000 nM
GI50 (EOL-1; Homo sapiens, EOL1, 72 h): < 5 nM
GI50 (RS4;11; Homo sapiens, RS4-11, 72 h): 132 nM
CC50 (RS4;11; Homo sapiens, RS4-11, 72 h): 6960 nM
GI50 (SKM-1; Homo sapiens): 1130 nM
CC50 (SKM-1; Homo sapiens): 7790 nM
GI50 (GDM-1; Homo sapiens): 33 nM
GI50 (KASUMI-3; Kasumi-3, 72 h): < 5 nM
CC50 (KASUMI-3; Kasumi-3, 72 h): < 5 nM

N[C@@H]1CCCN(c2c(/C=C3\SC(=O)NC3=O)cccc2-c2ccccc2)C1 [AZD1208]
GI50 (MOLM-16; MOLM-16, 72 h, dilutions starting at 10 µM): 16 nM
MCL1 abundance [2]: did not alter
STAT5 signaling [2]: did not change
S6 (S235/236) phosphorylation (MOLM-16 (FLT3-WT) cells): profound inhibition
GI50 (PL-21; dilutions starting at 10 µM): > 10000 nM
GI50 (OCI-AML-2; OCI-AML-2, 72 h, dilutions starting at 10 µM): 333 nM
GI50 (MOLM-6; MOLM-6, 72 h, dilutions starting at 10 µM): 973 nM
CC50 (MOLM-6; MOLM-6, 72 h, 50% death relative to T0): > 10000 nM
GI50 (SKNO-1; dilutions starting at 10 µM): 5 nM
GI50 (MV-4-11 [1]; MV-4-11, 72 h, dilutions starting at 10 µM): 1460 nM
GI50 (MOLM-13; dilutions starting at 10 µM): 306 nM
CC50 (MOLM-13; 50% death relative to T0): > 10000 nM
GI50 (SIG-M5; dilutions starting at 10 µM): > 10000 nM
CC50 (SIG-M5; 50% death relative to T0): > 10000 nM
combination of AZD1208 and AC220 (MV-4-11 [3]): synergistic effect
GI50 (OCI-AML-3; dilutions starting at 10 µM): > 10000 nM
GI50 (KASUMI-6; KASUMI-6, 72 h, dilutions starting at 10 µM): 19 nM
GI50 (KG-1; dilutions starting at 10 µM): 20 nM
CC50 (KG-1; 50% death relative to T0): > 10000 nM
GI50 (EOL-1; EOL-1, 72 h, dilutions starting at 10 µM): 89 nM
viability of MOLM-14 cells with FLT3-TKD mutants versus FLT3-ITD or parental cells [4]: only marginally affected the viability
GI50 (RS4;11; RS4;11, 72 h, dilutions starting at 10 µM): 4220 nM
CC50 (RS4;11; RS4;11, 72 h, 50% death relative to T0): > 10000 nM
GI50 (SKM-1; dilutions starting at 10 µM): > 10000 nM
CC50 (SKM-1; 50% death relative to T0): > 10000 nM
TGI (KG-1 (FLT3-WT) tumor): 59.9%
TGI (MOLM-13 xenografts): 19.5%
GI50 (GDM-1; dilutions starting at 10 µM): 506 nM
GI50 (KASUMI-3; KASUMI-3, 72 h, dilutions starting at 10 µM): 57 nM
CC50 (KASUMI-3; KASUMI-3, 72 h, 50% death relative to T0): 4630 nM
